Test results from patent US7871978B2, “Bone tropic peptides” (University of Virginia Patent Foundation, priority 2004, dated 2011).
One block for each substance: values may come before it.

Tests used:
[1] = system: Unicortical femoral defects; test: Peptide-mediated osteogenesis in cortical bone defects (Example 8); format: in vivo, Fisher 344 rats; settings: 100 mM peptide in gelfoam, two weeks postoperatively; for Effectiveness at stimulating osteogenesis and cortical bone repair: versus gelfoam+PBS
Protocol: In an in vivo study, all 13 peptides at a concentration of 100 mM were tested for their ability to potentiate osteogenesis. A gelfoam cylinder 1.5 mm in diameter 2 mm in length was used as carrier for the peptides. Unicortical femoral defects 1.5 mm in diameter were created bilaterally in Fisher 344 rats; the left femoral defect was filled with gelfoam+PBS (Control), and the right femur with gelfoam+peptide. The samples were harvested and examined two weeks postoperatively. To examine the effect of peptide concentration on cortical bone regeneration, peptide L7 (SEQ ID NO:5) was used at 1, 5, and 20 mM. […] The time course of cortical bone repair with 20 mM L7 was examined at 5, 10, 15, and 20 days.

[2] = system: bovine aortic endothelial cells; test: Effect of peptides on adherent bovine aortic endothelial cells on fibronectin or collagen; format: cell-based; settings: 0.1M biotinylated peptide, 1 hour; cells adhered four hours on fibronectin or collagen
Protocol: Peptides from the phage display project were added to bovine aortic endothelial cells in culture. The endothelial cells had adhered to a surface coated with collagen or with fibronectin.
Experiment 1: Bovine aortic endothelial cells were plated on glass slides that were coated either fibronectin or collagen. The cell density was 5,000 cells/well. After the cells adhered for four hours, 0.1M of biotinylated peptide was added to each well. The following peptides were used: L1, L2, L5, L6, L7, L12, L13, L14, L19, R1, R3, and R8.
To perform this experiment, the media was removed and the cells were rinsed with 1×PBS plus 1% BSA three times. Peptides were diluted in 1×PBS plus 1% BSA, added to cells and incubated for 1 hour. The cells were rinsed three times with 1% BSA in PBS, and fixed with 2% parafomaldehyde. Aldehyde groups were blocked with 0.2 M HCl-glycine in PBS, the cells were rinsed three times with 1% BSA in PBS and ExtrAvidin-FITC (1:200 dilution) was added and incubated overnight at 4° C. The cells were rinsed three times with 1% BSA in PBS. The chambers and the gasket were removed from each slide, Vectashield was added, covered and viewed on a Nikon microscope. Images were acquired using a Coolsnap digital camera and Metavue software. […]
Experiment 3: The cells were adherent for about 6 hours and peptides at various concentrations were added to the cells. The concentrations of each of the peptides used in this experiment were: 0.1M, 0.01M, 0.001M and 0.0001M biotinylated peptide. The following peptides were tested: L1, L5, L6, L7, L13, L14, R1, R3, R8, DIP1 and PBS control (SEQ ID NOs:1, 3, 4, 5, 8, 9, 11, 13, 14, and 29).

bone and bone marrow = test: In vivo biopanning with 12-mer peptide phage display library; design: species or system BALB/c mice; settings: for PERCENT FREQUENCY: phage eluted from bone and bone marrow; for PHAGE SEQUENCE FREQUENCY (number of times the sequence was found in a group of plaques): phage eluted from bone and bone marrow after repeated rounds
Description: The Ph.D.-12 Phage Display Peptide Library Kit (New England Biolabs, Beverly, Mass.) used in this study is based on a combinatorial library of random peptide 12-mers fused to a minor coat protein (pIII). […] The peptide is followed by a short spacer of four amino acid residues, the first three residues of which are glycine and the fourth of which is serine, and then the wild-type III sequence. The library consists of approximately 2.7×10^9 electroporated sequences, amplified once to yield approximately 55 copies of each sequence.
For in vivo biopanning, BALB/c mice 8 weeks of age were injected 3.4×10^10 pfu of phage into the heart. The animals were euthanized after 5 minutes, and the tissues (bone, bone marrow, kidney, liver, and spleen) were collected for analysis. The bound phage was eluted according the manufacturer's instructions. The eluted phage was titered, amplified, purified, and injected again at the same concentration.
The frequency of each peptide in bone and bone marrow was compared with its location in other tissues such as liver, kidney, lung, spleen, and brain. Thirteen unique peptide sequences eluted from bone and marrow were identified were identified by sequencing phage DNA. The peptides were synthesized using the polystyrene solid support on a Protein Technologies Symphony Multiple Channel Synthesizer.

[3] = system: bone and marrow tissue sections (mouse femur, rib); test: Biotinylated peptide binding to bone/marrow tissue sections, Avidin-FITC fluorescence
Protocol: Methods: Four-week old Swiss Webster mice were euthanized; the femurs were excised and decalcified in 0.25M EDTA in PBS solution for 5 days, and washed in PBS for 24 hours. The femoral shafts were obtained by cutting off the proximal and distal ends of the femur. The femoral shafts were placed in Tissue-Tek O.C.T. Compound (Sukura Finetek, Torrance, Calif.) and frozen at −20° C. overnight. Sections were cut at 10 μm serially with a cryomicrotome, rinsed with 1% BSA in PBS three times. To block non-specific reaction sections were incubated with Avidin/Biotin Blocking Kit (Vector Laboratories, Inc. Burlingame, Calif.) according to the manufacturer's instructions. Following another rinse with PBS, 150 μl 10 mM solution of each biotinylated peptide (L1, L2, L7, R1, R8) was added to the slides and incubated for 1 hour at room temperature. In negative controls, only PBS was added. After rewashes with 1% BSA, 150 μl of 1:50,000 dilution of Avidin-FITC was added to each slide and incubated overnight at 4° C.
The sections were washed with 1% BSA in PBS and mounted with Vectashield (Vector Laboratories Inc., Burlingame, Calif.). Fluorescence was visualized using a Nikon eclipse E600 microscope (Nikon, Melville, N.Y.) equipped with a 535 nm wavelength fluorescein filter. Images were obtained using a Sony DKC-5000 digital camera (Sony Electronics Inc.) and processed with Adobe Photoshop software (Adobe Systems Incorporated, San Jose, Calif.).
For localization of peptide binding to cells and tissue sections, biotinylated peptides were synthesized. Fluorescein-isothiocyanate (FITC) labeled Avidin was used to localize the peptides on cells in culture and in tissue sections in vitro by epiluminescence microscopy. In addition, the biotinylated peptides were detected at concentrations as low as 1 μM in slot blots.
Cryosections of decalcified femurs harvested from 4 week BALB/c mice were incubated with biotinylated peptide and Avidin-FITC. […] The distribution of fluorescence throughout the marrow was uneven. […] In control slides incubated with PBS without peptide, none of the cells could be detected by fluorescence (not shown). […]

[4] = BALB/c mouse decalcified femur cryosections, biotinylated peptide and Avidin-FITC
[5] = BALB/c mouse femur cryosections, biotinylated peptide
[6] = Swiss Webster mouse decalcified femur cryosections, 10 mM biotinylated peptide, 1 hour, Avidin-FITC
[7] = Swiss Webster mouse femur cryosections, 10 mM biotinylated peptide

Substance: ASN-ASN-VAL-SER-GLN-LYS-TRP-GLN-GLN-ARG-LEU-ILE-GLY-GLY-GLY-SER (NNVSQKWQQRLIGGGS; listed as Homo sapiens) [Peptide L6]
Effectiveness at stimulating osteogenesis and cortical bone repair [1]: most effective at stimulating osteogenesis and cortical bone repair
Effect on adherent BAEC (Experiment 1) [2]: the cells had lifted completely and most of the cells disappeared from the surface of the slides, leaving a lot of cell debris
PERCENT FREQUENCY (bone and bone marrow): 17.9%
PHAGE SEQUENCE FREQUENCY (number of times the sequence was found in a group of plaques) (bone and bone marrow): 5/28

Substance: SER-SER-THR-LEU-LYS-THR-PHE-PHE-GLY-PHE-PRO-ASP-GLY-GLY-GLY-SER (SSTLKTFFGFPDGGGS; listed as Homo sapiens) [Peptide L14]
Histological appearance of repair tissue in the defect [1]: a considerable amount of gelfoam remaining in the defects, with thinner and more loosely organized cortical bone
Effectiveness at stimulating osteogenesis and cortical bone repair [1]: least effective for cortical bone repair
Effect on adherent BAEC (Experiment 1) [2]: no effect, with results similar to PBS
PERCENT FREQUENCY (bone and bone marrow): 40.0%
PHAGE SEQUENCE FREQUENCY (number of times the sequence was found in a group of plaques) (bone and bone marrow): 12/30

Substance: GLY-ILE-HIS-VAL-PRO-TRP-MET-PRO-PRO-VAL-ALA-PHE-GLY-GLY-GLY-SER (GIHVPWMPPVAFGGGS; listed as Homo sapiens) [Peptide L11]
PERCENT FREQUENCY (bone and bone marrow): 3.3%
PHAGE SEQUENCE FREQUENCY (number of times the sequence was found in a group of plaques) (bone and bone marrow): 1/30

Substance: LYS-GLU-ILE-PRO-PRO-ILE-PRO-LEU-LEU-ALA-PRO-SER-GLY-GLY-GLY-SER (KEIPPIPLLAPSGGGS; listed as Homo sapiens) [Peptide L5]
Histological appearance of repair tissue in the defect [1]: while some ossification and cortical bone regeneration has occurred, considerable amounts of gelfoam remains in the defect
Effectiveness at stimulating osteogenesis and cortical bone repair [1]: virtually no stimulatory effect on osteogenesis
Effect on adherent BAEC (Experiment 1) [2]: the cells had lifted completely and most of the cells disappeared from the surface of the slides, leaving a lot of cell debris
PERCENT FREQUENCY (bone and bone marrow): 17.9%
PHAGE SEQUENCE FREQUENCY (number of times the sequence was found in a group of plaques) (bone and bone marrow): 5/28

Fluorescence detected in femur sections incubated with peptide [3, 4]: Fluorescence was detected
Fluorescence detected in femur sections incubated with peptide [3, 6]: Fluorescence was detected
Substance: THR-MET-ARG-ASN-PRO-ILE-THR-SER-LEU-ILE-SER-VAL-GLY-GLY-GLY-SER (TMRNPITSLISVGGGS; listed as Homo sapiens) [Peptide L1]
Histological appearance of repair tissue in the defect [1]: a considerable amount of gelfoam remaining in the defects, with thinner and more loosely organized cortical bone
Effectiveness at stimulating osteogenesis and cortical bone repair [1]: least effective for cortical bone repair
Effect on adherent BAEC (Experiment 1) [2]: the cells lifted and formed clusters that stained intensely
PERCENT FREQUENCY (bone and bone marrow): 28.6%
PHAGE SEQUENCE FREQUENCY (number of times the sequence was found in a group of plaques) (bone and bone marrow): 8/28
Cell shape preferentially recognized by peptide [3, 5]: recognized the round cells preferentially
Extent of marrow cells detected by fluorescence [3, 5]: did not detect as many cells
Cell shape preferentially recognized by peptide [3, 7]: recognized the round cells preferentially
Extent of marrow cells detected by fluorescence [3, 7]: did not detect as many cells

Substance: LEU-LEU-ALA-ASP-THR-THR-HIS-HIS-ARG-PRO-TRP-THR-GLY-GLY-GLY-SER (LLADTTHHRPWTGGGS; listed as Homo sapiens) [Peptide L2]
Histological appearance of repair tissue in the defect [1]: a considerable amount of gelfoam remaining in the defects, with thinner and more loosely organized cortical bone
Effectiveness at stimulating osteogenesis and cortical bone repair [1]: least effective for cortical bone repair
Effect on adherent BAEC (Experiment 1) [2]: no effect, with results similar to PBS
PERCENT FREQUENCY (bone and bone marrow): 32.1%
PHAGE SEQUENCE FREQUENCY (number of times the sequence was found in a group of plaques) (bone and bone marrow): 9/28
Fluorescence detected in femur sections incubated with peptide [3, 4]: Fluorescence was detected
Cell shape preferentially recognized by peptide [3, 5]: recognized cells with mostly irregular shapes
Extent of marrow cells detected by fluorescence [3, 5]: did not detect as many cells
Fluorescence detected in femur sections incubated with peptide [3, 6]: Fluorescence was detected
Cell shape preferentially recognized by peptide [3, 7]: recognized cells with mostly irregular shapes
Extent of marrow cells detected by fluorescence [3, 7]: did not detect as many cells

Substance: LEU-PRO-TRP-THR-GLU-PRO-SER-PHE-TRP-ARG-THR-PRO-GLY-GLY-GLY-SER (LPWTEPSFWRTPGGGS; homo sapiens) [Peptide D1P1]
Effect on adherent BAEC (Experiment 1) [2]: no effect, with results similar to PBS
